The values that follow come from patent publication US7217730B2, “Method for the use of pyranoindole derivatives to treat infection with Hepatitis C virus” (Wyeth, priority 2002, dated 2007).

The target of assay [1] is BB7 (RNA-dependent RNA polymerase hepatitis C virus protein sequence derived from HCV replicon) (Hepatitis C virus genotype 1b, UniProt Q9WMX2). The assay is described as follows: Hepatitis C polymerase inhibition, BB7 sequence. Format: biochemical. As to conditions: Table 1B.
Assay [2] concerns the target T1, NS5B from the BK strain (genotype 1b) (Hepatitis C virus genotype 1b, UniProt P26663).
T1 construct: NS5B from the BK strain (genotype 1b) is expressed in E. coli as a protein in which the 21 C-terminal amino acids are replaced; made in house; host or cells: E. coli
The assay is described as follows: Hepatitis C polymerase inhibition, NS5B BK strain, 33P-GTP filter assay. The settings on record: Table 1B; NS5B BK strain; read-out: BK IC50. The assay is classed as biochemical. The method in brief: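 E. coli-expressed NS5B (BK, genotype 1b) with the 21 C-terminal residues replaced by a linker-His6 tag was preincubated with compound for 15 min at room temperature. It then extended a hairpin-primed heteropolymeric RNA (~3 nM, ~760 nt product) with α-[33P]-GTP for 2 h at 22–25° C. The reaction was stopped with EDTA, and incorporated label was counted on filters.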

Structures are written as SMILES. Bounds are passed on as bounds.

Sequence of BB7 (RNA-dependent RNA polymerase hepatitis C virus protein sequence derived from HCV replicon) (Q9WMX2 2420-3010): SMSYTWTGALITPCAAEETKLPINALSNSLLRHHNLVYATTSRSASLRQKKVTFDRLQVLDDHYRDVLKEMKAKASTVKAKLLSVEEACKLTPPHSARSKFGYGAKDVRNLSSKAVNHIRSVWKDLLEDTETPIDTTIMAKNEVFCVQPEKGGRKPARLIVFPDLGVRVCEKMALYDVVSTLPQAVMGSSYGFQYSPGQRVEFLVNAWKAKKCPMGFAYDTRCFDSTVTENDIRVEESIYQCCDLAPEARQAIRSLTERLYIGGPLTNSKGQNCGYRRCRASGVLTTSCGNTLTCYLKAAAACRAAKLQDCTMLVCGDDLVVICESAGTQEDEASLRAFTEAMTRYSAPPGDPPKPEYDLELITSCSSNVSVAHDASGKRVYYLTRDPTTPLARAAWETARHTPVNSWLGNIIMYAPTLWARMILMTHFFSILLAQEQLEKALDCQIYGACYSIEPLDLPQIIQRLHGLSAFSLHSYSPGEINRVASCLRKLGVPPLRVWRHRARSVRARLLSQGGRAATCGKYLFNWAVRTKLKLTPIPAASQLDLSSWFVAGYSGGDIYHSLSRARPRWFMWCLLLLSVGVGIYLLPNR
T1 sequence (P26663 2420-2989): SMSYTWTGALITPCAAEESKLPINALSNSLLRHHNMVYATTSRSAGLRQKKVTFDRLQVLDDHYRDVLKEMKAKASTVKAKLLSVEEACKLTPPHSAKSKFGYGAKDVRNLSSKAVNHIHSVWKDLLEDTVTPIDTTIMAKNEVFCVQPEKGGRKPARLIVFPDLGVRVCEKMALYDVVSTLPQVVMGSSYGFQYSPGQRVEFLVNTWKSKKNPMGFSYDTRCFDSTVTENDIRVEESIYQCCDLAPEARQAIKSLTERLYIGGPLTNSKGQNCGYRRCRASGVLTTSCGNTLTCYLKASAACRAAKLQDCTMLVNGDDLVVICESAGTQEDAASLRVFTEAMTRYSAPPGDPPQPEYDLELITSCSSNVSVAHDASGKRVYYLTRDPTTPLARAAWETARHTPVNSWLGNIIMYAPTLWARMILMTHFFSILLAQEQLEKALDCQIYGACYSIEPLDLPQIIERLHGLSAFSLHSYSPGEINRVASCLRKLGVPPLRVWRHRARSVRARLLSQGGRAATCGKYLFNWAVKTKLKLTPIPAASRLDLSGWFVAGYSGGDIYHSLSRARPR

What is called IC50 is the concentration needed to halve the response being measured. With `CCCC1(CC(=O)O)OCCc2c1[nH]c1c(F)ccc(C(F)(F)F)c21` (stereo not shown) [Example 268, (8-fluoro-1-propyl-5-trifluoromethyl-1,3,4,9-tetrahydropyrano[3,4-b]indol-1-yl)acetic acid], the IC50 in assay [1] was found to be 6.1 µM; in assay [2], 4.6 µM.
As for `CCCC1(C(=O)O)OCCc2c1[nH]c1c(C)ccc(C#N)c21` (stereo not shown) [Example 334, (5-cyano-8-methyl-1-propyl-1,3,4,9-tetrahydropyrano[3,4-b]indol-1-yl)carboxylic acid], the figures for the IC50 in assay [1] and in assay [2] were 5 µM and 3 µM, respectively.
As to `CCCCC1(CC(=O)O)OCCc2c1[nH]c1c(CC)ccc(C#N)c21` (stereo not shown) [Example 296, (1-butyl-5-cyano-8-ethyl-1,3,4,9-tetrahydropyrano[3,4-b]indol-1-yl)acetic acid], the figures for the IC50 in assay [1] and in assay [2] were 6.3 µM and 7.2 µM, respectively.
For `CCCCC1(C(=O)O)OCCc2c1[nH]c1c(F)ccc(C#N)c21` (stereo not shown) [Example 345, (1-butyl-5-cyano-8-fluoro-1,3,4,9-tetrahydropyrano[3,4-b]indol-1-yl)carboxylic acid], in that order: 6.2 µM and 3.4 µM.
On to `CCC[C@@]1(C(=O)O)OCCc2c1[nH]c1c(F)ccc(C#N)c21` [Example 343, (1R)-(5-cyano-8-fluoro-1-propyl-1,3,4,9-tetrahydropyrano[3,4-b]-indol 1-yl)carboxylic acid], for which the IC50 in assay [1] and in assay [2] was greater than 30 µM throughout.
For `CCCC1(CC(=O)O)OCCc2c1[nH]c1c(C(F)(F)F)ccc(C(F)(F)F)c21` (stereo not shown) [Example 271, [5,8-bis(trifluoromethyl)-1-propyl-1,3,4,9-tetrahydropyrano[3,4-b]indol-1-yl]acetic acid], the IC50 in assay [1] stood at 3.5 µM; in assay [2], 2.7 µM.
As to `CCC[C@@]1(CC(=O)O)OCCc2c1[nH]c1c(Cl)ccc(C#N)c21` [Example 323, (1S)-(8-chloro-5-cyano-1-propyl-1,3,4,9-tetrahydropyrano[3,4-b]indol-1-yl)acetic acid], the IC50 in assay [1] stood at 11 µM; in assay [2], 4.9 µM.
For `CCCC1(C(=O)O)OCCc2c1[nH]c1c(Cl)ccc(Cl)c21` (stereo not shown) [Example 329, (5,8-dichloro-1-propyl-1,3,4,9-tetrahydropyrano[3,4-b]indol-1-yl)carboxylic acid], in that order: 1.5 µM and 0.6 µM.
Consider `CCCNC(=O)c1cc(C#N)c2c3c([nH]c2c1C)C(CCC)(CC(=O)O)OCC3` (stereo not shown) [Example 354, (5-cyano-8-methyl-1-propyl-7-propylcarbamoyl-1,3,4,9-tetrahydro-pyrano[3,4-b]indol-1-yl)-acetic acid], for which the IC50 is 2 µM in assay [1] and 3 µM in assay [2].
As for `COCC1(CC(=O)O)OCCc2c1[nH]c1c(Cl)ccc(Cl)c21` (stereo not shown) [Example 246, (5,8-dichloro-1-methoxymethyl-1,3,4,9-tetrahydropyrano[3,4-b]indol-1-yl)acetic acid], the IC50 in assay [1] and in assay [2] was greater than 30 µM throughout.
As for `CC[C@H](C)[C@@]1(CC(=O)O)OCCc2c1[nH]c1c(C)ccc(C#N)c21` [Example 292, (1R,10S)-[5-cyano-8-methyl-1-(1-methylpropyl)-1,3,4,9-tetrahydropyrano[3,4-b]indol-1-yl]acetic acid], the IC50 in assay [1] was 0.26 µM; in assay [2] it was 0.13 µM.
Turning to `O=C(O)CC1(C2CCC2)OCCc2c1[nH]c1c(Cl)ccc(C(F)(F)F)c21` (stereo not shown) [Example 267, (8-chloro-1-cyclobutyl-5-trifluoromethyl-1,3,4,9-tetrahydropyrano[3,4-b]indol-1-yl)acetic acid], the IC50 is 2.3 µM in assay [1] and 0.66 µM in assay [2].
As for `CCCC1(CC(=O)O)OCCc2c1[nH]c1c(C)c(OCCC(C)(C)C)cc(C#N)c21` (stereo not shown) [Example 366, [5-cyano-7-(3,3-dimethyl-butoxy)-8-methyl-1-propy-1,3,4,9-tetrahydro-pyrano[3,4-b]indol-1-yl]-acetic acid], the IC50 in assay [1] came out at 0.55 µM; in assay [2], 1.7 µM.
For `CCCC1(CC(=O)O)OCCc2c1[nH]c1c(C)c(OC)cc(C#N)c21` (stereo not shown) [Example 363, (5-cyano-7-methoxy-8-methyl-1-propyl-1,3,4,9-tetrahydro-pyrano[3,4-b]indol-1-yl)-acetic acid], the IC50 came to 0.13 µM in assay [1] and 0.36 µM in assay [2].
For the compound `Cc1ccc(C#N)c2c3c([nH]c12)C(CCC(F)(F)F)(CC(=O)O)OCC3` (stereo not shown) [Example 280, [5-cyano-8-methyl-1-(3,3,3-trifluoropropyl)-1,3,4,9-tetrahydropyrano[3,4-b]indol-1-yl]acetic acid], the concentration for half-maximal inhibition (IC50) was 2 µM in assay [1] and 0.8 µM in assay [2].
On to `CCCC1(CC(=O)O)OCCc2c1[nH]c1c(C)c(OCCF)cc(C#N)c21` (stereo not shown) [Example 369, [5-cyano-7-(2-fluoro-ethoxy)-8-methyl-1-propyl-1,3,4,9-tetrahydro-pyrano[3,4-b]indol-1-yl]acetic acid], for which the IC50 is 0.01 µM in assay [1] and 0.004 µM in assay [2].
For `COCC1(CC(=O)O)OCCc2c1[nH]c1ccc(Cl)c(Cl)c21` (stereo not shown) [Example 237, (5,6-Dichloro-1-methoxymethyl-1,3,4,9-tetrahydropyrano[3,4-b]indol-1-yl)acetic acid], in that order: greater than 24 µM and greater than 27 µM.
`Cc1ccc(C#N)c2c3c([nH]c12)[C@@](CC(=O)O)(C1CCC1)OCC3` [Example 285, (1R)-(5-cyano-1-cyclobutyl-8-methyl-1,3,4,9-tetrahydropyrano[3,4-b]indol-1-yl)acetic acid]: the IC50 in assay [1] was determined as 1.1 µM; in assay [2], 0.4 µM.
As for `CC[C@H](C)[C@]1(CC(=O)O)OCCc2c1[nH]c1c(F)ccc(C#N)c21` [Example 316, (1S,10S)-[5-cyano-8-fluoro-1-(1-methylpropyl)-1,3,4,9-tetrahydropyrano[3,4-b]indol-1-yl]acetic acid], the IC50 in assay [1] and in assay [2] was greater than 30 µM throughout.
For the compound `CC[C@@H](C)[C@@]1(CC(=O)O)OCCc2c1[nH]c1c(C)ccc(C#N)c21` (racemic) [Example 290, (1R*,10R*)-[5-cyano-8-methyl-1-(1-methylpropyl)-1,3,4,9-tetrahydropyrano[3,4-b]indol-1-yl]acetic acid], the IC50 in assay [1] is 4.9 µM; in assay [2] it was 3.2 µM.
As to `COCC1(CC(=O)O)OCCc2c1[nH]c1c(F)ccc(C#N)c21` (stereo not shown) [Example 303, (5-cyano-8-fluoro-1-methoxymethyl-1,3,4,9-tetrahydropyrano[3,4-b]indol-1-yl)acetic acid], the IC50 in assay [1] and in assay [2] was greater than 30 µM in each case.
Take `CCCC1(CC(=O)O)OCCc2c1[nH]c1c(C)c(C(=O)NC(C)C)cc(C#N)c21` (stereo not shown) [Example 355, (5-cyano-7-isopropylcarbamoyl-8-methyl-1-propyl-1,3,4,9-tetrahydro-pyrano[3,4-b]indol-1-yl)-acetic acid]: the IC50 came to 2.9 µM in assay [1] and 5.1 µM in assay [2].
As for `Cc1ccc(C#N)c2c3c([nH]c12)C(C(=O)O)(C1CCC1)OCC3` (stereo not shown) [Example 338, (5-cyano-1-cyclobutyl-8-methyl-1,3,4,9-tetrahydropyrano[3,4-b]indol-1-yl)carboxylic acid], the IC50 turned out to be 3.9 µM in assay [1] and 3.3 µM in assay [2].
For `Cc1ccc(C#N)c2c3c([nH]c12)C(CC(=O)O)(C1CCCC1)OCC3` (stereo not shown) [Example 287, (5-cyano-1-cyclopentyl-8-methyl-1,3,4,9-tetrahydropyrano[3,4-b]indol-1-yl)acetic acid], in that order: 6.5 µM and 5.1 µM.
Take `C=CCCC1(C(=O)O)OCCc2c1[nH]c1c(F)ccc(C#N)c21` (stereo not shown) [Example 346, [1-(3-butenyl)-5-cyano-8-fluoro-1,3,4,9-tetrahydropyrano[3,4-b]indol-1-yl]carboxylic acid]: the IC50 in assay [1] stood at 8 µM; in assay [2], 6.1 µM.
`N#Cc1ccc(F)c2[nH]c3c(c12)CCOC3(CC(=O)O)CC1CCCC1` (stereo not shown) [Example 310, (5-cyano-1-cyclopentylmethyl-8-fluoro-1,3,4,9-tetrahydropyrano[3,4-b]indol-1-yl)acetic acid]: the IC50 in assay [1] and in assay [2] was greater than 25 µM throughout.
In the case of `CCC(C)C1(CC(=O)O)OCCc2c1[nH]c1c(Cl)ccc(Cl)c21` (stereo not shown) [Example 256, [5,8-dichloro-1-(1-methylpropyl)-1,3,4,9-tetrahydropyrano[3,4-b]indol-1-yl]acetic acid], the IC50 came to 0.34 µM in assay [1] and 0.15 µM in assay [2].
On to `CCCOc1cc(C#N)c2c3c([nH]c2c1C)[C@@](CCC)(CC(=O)O)OCC3` [Example 360, (1R)-(5-cyano-8-methyl-7-propoxy-1-propyl-1,3,4,9-tetrahydro-pyrano[3,4-b]indol-1-yl)-acetic acid], for which the half-inhibitory concentration (IC50) in assay [1] was 0.04 µM; in assay [2] it was 0.09 µM.
For `Cc1cc(F)c(C#N)c2c3c([nH]c12)C(CC(=O)O)(C1CCC1)OCC3` (stereo not shown) [Example 317, (5-cyano-1-cyclobutyl-6-fluoro-8-methyl-1,3,4,9-tetrahydropyrano[3,4-b]indol-1-yl)acetic acid], in that order: 0.9 µM and 0.6 µM.
For `CCCC1(CC(=O)O)OCCc2c1[nH]c1c(C)c(C(=O)O)cc(C#N)c21` (stereo not shown) [Example 353, 1-carboxymethyl-5-cyano-8-methyl-1-propyl-1,3,4,9 tetrahydro-pyrano[3,4-b]indole-7-carboxylic acid], in that order: 0.81 µM and 2 µM.
In turn, `CC1(CC(=O)O)OCCc2c1[nH]c1c(Cl)ccc(Cl)c21` (stereo not shown) [Example 242, (5,8-dichloro-1-methyl-1,3,4,9-tetrahydropyrano[3,4-b]indol-1-yl)acetic acid] gave an IC50 in assay [1] of 18 µM.
